From the supplement of paper PMC10307832

Legend:
Experiment in all cases: relative viability (nuclei count vs DMSO), 5 days (fraction); higher = more cells survive
JZL-184 + Palbociclib = compound: C1CN(CCC1C(C2=CC3=C(C=C2)OCO3)(C4=CC5=C(C=C4)OCO5)O)C(=O)OC6=CC=C(C=C6)[N+](=O)[O-] [JZL-184] + CC(=O)c1c(C)c2cnc(Nc3ccc(N4CCNCC4)cn3)nc2n(C2CCCC2)c1=O [Palbociclib] (partner 0.5 µM)
Method in brief: (§1)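 Lung cancer cell lines in 1536-well plates were dosed by pin tool the day after seeding, either with one drug alone or with a fixed anchor-drug dose plus five library-drug doses (not always all listed) in √10 steps. After 5 days, cells were fixed and their nuclei stained in one step (final 0.05% Triton X-100, 1% formaldehyde, 1 ug/ml Hoechst), then counted on 4× images. Relative viability is the nuclei count in treated wells divided by that in vehicle wells. Values are medians of duplicate plates.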

JZL-184 + Trametinib = compound: C1CN(CCC1C(C2=CC3=C(C=C2)OCO3)(C4=CC5=C(C=C4)OCO5)O)C(=O)OC6=CC=C(C=C6)[N+](=O)[O-] [JZL-184] + CC(=O)Nc1cccc(-n2c(=O)n(C3CC3)c(=O)c3c(Nc4ccc(I)cc4F)n(C)c(=O)c(C)c32)c1 [Trametinib] (partner 0.02 µM)
Method in brief: as §1

JZL-184 + Olaparib = compound: C1CN(CCC1C(C2=CC3=C(C=C2)OCO3)(C4=CC5=C(C=C4)OCO5)O)C(=O)OC6=CC=C(C=C6)[N+](=O)[O-] [JZL-184] + O=C(c1cc(Cc2n[nH]c(=O)c3ccccc23)ccc1F)N1CCN(C(=O)C2CC2)CC1 [Olaparib] (partner 8 µM)
Method in brief: as §1

JZL-184 + Pemetrexed = compound: C1CN(CCC1C(C2=CC3=C(C=C2)OCO3)(C4=CC5=C(C=C4)OCO5)O)C(=O)OC6=CC=C(C=C6)[N+](=O)[O-] [JZL-184] + Nc1nc2[nH]cc(CCc3ccc(C(=O)N[C@@H](CCC(=O)O)C(=O)O)cc3)c2c(=O)[nH]1 [Pemetrexed] (partner 0.2 µM)
Method in brief: as §1

JZL-184 + Tozasertib = compound: C1CN(CCC1C(C2=CC3=C(C=C2)OCO3)(C4=CC5=C(C=C4)OCO5)O)C(=O)OC6=CC=C(C=C6)[N+](=O)[O-] [JZL-184] + Cc1cc(Nc2cc(N3CCN(C)CC3)nc(Sc3ccc(NC(=O)C4CC4)cc3)n2)n[nH]1 [Tozasertib] (partner 0.1 µM)
Method in brief: as §1

JZL-184 + OSI-027 = compound: C1CN(CCC1C(C2=CC3=C(C=C2)OCO3)(C4=CC5=C(C=C4)OCO5)O)C(=O)OC6=CC=C(C=C6)[N+](=O)[O-] [JZL-184] + COc1cccc2cc(-c3nc([C@H]4CC[C@H](C(=O)O)CC4)n4ncnc(N)c34)[nH]c12 [OSI-027] (partner 0.5 µM)
Method in brief: as §1

JZL-184 + Dasatinib = compound: C1CN(CCC1C(C2=CC3=C(C=C2)OCO3)(C4=CC5=C(C=C4)OCO5)O)C(=O)OC6=CC=C(C=C6)[N+](=O)[O-] [JZL-184] + Cc1nc(Nc2ncc(C(=O)Nc3c(C)cccc3Cl)s2)cc(N2CCN(CCO)CC2)n1 [Dasatinib] (partner 0.075 µM)
Method in brief: as §1

JZL-184 + Luminespib = compound: C1CN(CCC1C(C2=CC3=C(C=C2)OCO3)(C4=CC5=C(C=C4)OCO5)O)C(=O)OC6=CC=C(C=C6)[N+](=O)[O-] [JZL-184] + CCNC(=O)c1noc(-c2cc(C(C)C)c(O)cc2O)c1-c1ccc(CN2CCOCC2)cc1 [Luminespib] (partner 0.01 µM)
Method in brief: as §1

JZL-184 + AZD7762 = compound: C1CN(CCC1C(C2=CC3=C(C=C2)OCO3)(C4=CC5=C(C=C4)OCO5)O)C(=O)OC6=CC=C(C=C6)[N+](=O)[O-] [JZL-184] + NC(=O)Nc1cc(-c2cccc(F)c2)sc1C(=O)N[C@H]1CCCNC1 [AZD7762] (partner 0.2 µM)
Method in brief: as §1

JZL-184 + Phenformin = compound: C1CN(CCC1C(C2=CC3=C(C=C2)OCO3)(C4=CC5=C(C=C4)OCO5)O)C(=O)OC6=CC=C(C=C6)[N+](=O)[O-] [JZL-184] + N=C(N)NC(=N)NCCc1ccccc1 [Phenformin] (partner 250 µM)
Method in brief: as §1

JZL-184 + Decitabine = compound: C1CN(CCC1C(C2=CC3=C(C=C2)OCO3)(C4=CC5=C(C=C4)OCO5)O)C(=O)OC6=CC=C(C=C6)[N+](=O)[O-] [JZL-184] + Nc1ncn([C@H]2C[C@H](O)[C@@H](CO)O2)c(=O)n1 [Decitabine] (partner 2 µM)
Method in brief: as §1

JZL-184 + Vorinostat = compound: C1CN(CCC1C(C2=CC3=C(C=C2)OCO3)(C4=CC5=C(C=C4)OCO5)O)C(=O)OC6=CC=C(C=C6)[N+](=O)[O-] [JZL-184] + O=C(CCCCCCC(=O)Nc1ccccc1)NO [Vorinostat] (partner 1 µM)
Method in brief: as §1

JZL-184 = compound: C1CN(CCC1C(C2=CC3=C(C=C2)OCO3)(C4=CC5=C(C=C4)OCO5)O)C(=O)OC6=CC=C(C=C6)[N+](=O)[O-] [JZL-184]
Method in brief: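 Lung cancer cell lines were seeded into 1536-well plates, kept overnight at 37 °C and pinned with five library-drug doses (not always all listed) spaced by √10. After 5 days, nuclei were Hoechst-stained, imaged at 4× and counted with MetaXpress. Viability is treated-well nuclei over vehicle-well nuclei, taken as a median across plates. Plates needed control CV below 25% and at least one doubling.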

Question: Which results are given for NCI-H522?
Answer: relative viability (JZL-184 + Palbociclib; first compound 0.04 µM): 1.23; relative viability (JZL-184 + Palbociclib; first compound 0.4 µM): 0.936; relative viability (JZL-184 + Palbociclib; first compound 1.265 µM): 1.13; relative viability (JZL-184 + Palbociclib; first compound 4 µM): 0.903; relative viability (JZL-184 + Trametinib; first compound 0.04 µM): 0.856; relative viability (JZL-184 + Trametinib; first compound 0.4 µM): 0.758; relative viability (JZL-184 + Trametinib; first compound 1.265 µM): 0.791; relative viability (JZL-184 + Trametinib; first compound 4 µM): 0.802; relative viability (JZL-184 + Olaparib; first compound 0.04 µM): 0.709; relative viability (JZL-184 + Olaparib; first compound 0.4 µM): 0.62; relative viability (JZL-184 + Olaparib; first compound 1.265 µM): 0.648; relative viability (JZL-184 + Olaparib; first compound 4 µM): 0.574; relative viability (JZL-184 + Pemetrexed; first compound 0.04 µM): 1.23; relative viability (JZL-184 + Pemetrexed; first compound 0.4 µM): 0.981; relative viability (JZL-184 + Pemetrexed; first compound 1.265 µM): 1.02; relative viability (JZL-184 + Pemetrexed; first compound 4 µM): 1.16; relative viability (JZL-184 + Tozasertib; first compound 0.04 µM): 0.668; relative viability (JZL-184 + Tozasertib; first compound 0.4 µM): 0.5; relative viability (JZL-184 + Tozasertib; first compound 1.265 µM): 0.618; relative viability (JZL-184 + Tozasertib; first compound 4 µM): 0.563; relative viability (JZL-184 + OSI-027; first compound 0.04 µM): 0.906; relative viability (JZL-184 + OSI-027; first compound 0.4 µM): 0.748; relative viability (JZL-184 + OSI-027; first compound 1.265 µM): 0.748; relative viability (JZL-184 + OSI-027; first compound 4 µM): 0.748; relative viability (JZL-184 + Dasatinib; first compound 0.04 µM): 0.967; relative viability (JZL-184 + Dasatinib; first compound 0.4 µM): 0.821; relative viability (JZL-184 + Dasatinib; first compound 1.265 µM): 0.842; relative viability (JZL-184 + Dasatinib; first compound 4 µM): 0.946; relative viability (JZL-184 + Luminespib; first compound 0.04 µM): 1.29; relative viability (JZL-184 + Luminespib; first compound 0.4 µM): 1.14; relative viability (JZL-184 + Luminespib; first compound 1.265 µM): 1.18; relative viability (JZL-184 + Luminespib; first compound 4 µM): 1.29; relative viability (JZL-184 + AZD7762; first compound 0.04 µM): 0.898; relative viability (JZL-184 + AZD7762; first compound 0.4 µM): 0.706; relative viability (JZL-184 + AZD7762; first compound 1.265 µM): 0.885; relative viability (JZL-184 + AZD7762; first compound 4 µM): 0.781; relative viability (JZL-184 + Phenformin; first compound 0.04 µM): 0.606; relative viability (JZL-184 + Phenformin; first compound 0.4 µM): 0.667; relative viability (JZL-184 + Phenformin; first compound 1.265 µM): 0.59; relative viability (JZL-184 + Phenformin; first compound 4 µM): 0.635; relative viability (JZL-184 + Decitabine; first compound 0.04 µM): 0.689; relative viability (JZL-184 + Decitabine; first compound 0.4 µM): 0.615; relative viability (JZL-184 + Decitabine; first compound 1.265 µM): 0.685; relative viability (JZL-184 + Decitabine; first compound 4 µM): 0.611; relative viability (JZL-184 + Vorinostat; first compound 0.04 µM): 0.937; relative viability (JZL-184 + Vorinostat; first compound 0.4 µM): 0.858; relative viability (JZL-184 + Vorinostat; first compound 1.265 µM): 0.952; relative viability (JZL-184 + Vorinostat; first compound 4 µM): 0.947; relative viability (JZL-184; 0.04 µM): 1.24; relative viability (JZL-184; 0.4 µM): 0.896; relative viability (JZL-184; 1.265 µM): 1.05; relative viability (JZL-184; 4 µM): 0.901
